IC50 data for 42 compounds are collected here from patent US9856250B2, “Substituted tropane derivatives” (TOA EIYO LTD., priority 2014, dated 2018).

The assay has as its target human T-type calcium channels (human Cav3.2) (Homo sapiens (Human), UniProt O95180). The assay is described as follows: Antagonistic activity against T-type calcium channels (Cav3.2), Fura2 intracellular calcium assay in HEK293 cells. Type of assay: cell-based. How it is done:
For representative compounds of the present invention, the antagonistic activity against T-type calcium channels (Cav3.2) was examined by the Test Examples described below. For the respective tests, human embryo kidney cells (HEK293 cells) in which human T-type calcium channels (human Cav3.2) were stably expressed were used.
The HEK293 cells having human Cav3.2 stably expressed therein were cultured at 37° C. in Alpha-MEM, to which 10% (v/v) fetal bovine serum (FBS), penicillin (100 U/mL), streptomycin (100 μg/mL), and G418 ([…]) had been added. The cells were suspended in the culture liquid and were inoculated onto a 96-well plate. Subsequently, the cells were cultured for 48 hours. The culture liquid was removed, and the liquid was changed to S-MEM, to which 5% (v/v) FBS, calcium chloride (0.5 mmol/L), L-glutamine (2 mmol/L), L-alanine (8.9 ng/mL), L-asparagine (13.2 ng/mL), L-aspartic acid (1.33 ng/mL), L-glutamic acid (14.7 ng/mL), glycine (7.5 ng/mL), L-proline (11.5 ng/mL, L-serine (10.5 ng/mL), penicillin (100 U/mL), and streptomycin (100 μg/mL) had been added. The cells were cultured for another 24 hours. The culture liquid was removed again, and the cells were washed with an assay buffer (140 mmol/L sodium chloride, 5 mmol/L potassium chloride, 0.5 mmol/L magnesium chloride, 0.5 mmol/L calcium chloride, 10 mmol/L glucose, 0.4 mmol/L magnesium sulfate, 10 mmol/L HEPES, and […] sulfinpyrazone, pH 7.4) that had been kept warm at 37° C. Subsequently, an assay buffer prepared by dissolving Fura2-AM, which is a fluorescent Ca^2+ indicator, to a concentration of 5 μM, was added to the cells, and the system was incubated for 30 minutes at 37° C. The assay buffer having Fura2 dissolved therein was removed, and the cells were washed with the assay buffer. Subsequently, an assay buffer prepared by adding a test compound was added to the cells, and the system was incubated for 15 minutes. The plate was mounted on a fluorescence analyzer (FLEX STATION II, Molecular Devices, LLC), and the baseline was measured for 20 seconds. Subsequently, any change in the intracellular calcium concentration that was induced when an assay buffer prepared by adding 100 mmol/L calcium chloride was added to the cells, was measured (excited at 340 nm or 380 nm, and detected at 510 nm). The fluorescence intensity ratios obtainable at the respective wavelengths were calculated.
Meanwhile, the test compound solution was prepared by dissolving each test compound in DMSO to a concentration of 10 mmol/L, and then adjusting the concentration with the assay buffer so as to obtain the set concentration. For the control solution, DMSO was used instead of a test compound.
The inhibitory activity level (%) of a test compound was calculated by subtracting the average value of the fluorescence intensity ratio for a period of 0 to 20 seconds after initiation of measurement, from the average value of the fluorescence intensity ratio for a period of 45 to 50 seconds after initiation of measurement, taking the value obtained using the control solution as the maximum activity of Cav3.2, and comparing this value with the activity in the presence of the test compound.
Calculation of IC50 Value:
The inhibitory activity of each test compound was measured at concentrations of […], and the IC50 value was calculated using the curve fitting formula (Model 08: sigmoidal inhibition curve) of ASSAY EXPLORER (Symyx Technologies, Inc.).
Average of RFU value obtained for 25 to 30 seconds after the addition of a […] assay buffer after treatment with the control solution (for 45 to 50 seconds after the initiation of measurement). The RFU in the formula represents the Relative Fluorescence Unit.
(In general: Calcium assays in cells follow changes in intracellular calcium, usually with a dye or a luminescent sensor.)

Setting [1] is: HEK293 cells stably expressing human Cav3.2, Fura2 fluorescence ratio after calcium chloride addition, read-out: IC50.

Like-named read-outs stand apart in the source and are kept apart here.

human T-type calcium channels (human Cav3.2), sequence (O95180 whole entry): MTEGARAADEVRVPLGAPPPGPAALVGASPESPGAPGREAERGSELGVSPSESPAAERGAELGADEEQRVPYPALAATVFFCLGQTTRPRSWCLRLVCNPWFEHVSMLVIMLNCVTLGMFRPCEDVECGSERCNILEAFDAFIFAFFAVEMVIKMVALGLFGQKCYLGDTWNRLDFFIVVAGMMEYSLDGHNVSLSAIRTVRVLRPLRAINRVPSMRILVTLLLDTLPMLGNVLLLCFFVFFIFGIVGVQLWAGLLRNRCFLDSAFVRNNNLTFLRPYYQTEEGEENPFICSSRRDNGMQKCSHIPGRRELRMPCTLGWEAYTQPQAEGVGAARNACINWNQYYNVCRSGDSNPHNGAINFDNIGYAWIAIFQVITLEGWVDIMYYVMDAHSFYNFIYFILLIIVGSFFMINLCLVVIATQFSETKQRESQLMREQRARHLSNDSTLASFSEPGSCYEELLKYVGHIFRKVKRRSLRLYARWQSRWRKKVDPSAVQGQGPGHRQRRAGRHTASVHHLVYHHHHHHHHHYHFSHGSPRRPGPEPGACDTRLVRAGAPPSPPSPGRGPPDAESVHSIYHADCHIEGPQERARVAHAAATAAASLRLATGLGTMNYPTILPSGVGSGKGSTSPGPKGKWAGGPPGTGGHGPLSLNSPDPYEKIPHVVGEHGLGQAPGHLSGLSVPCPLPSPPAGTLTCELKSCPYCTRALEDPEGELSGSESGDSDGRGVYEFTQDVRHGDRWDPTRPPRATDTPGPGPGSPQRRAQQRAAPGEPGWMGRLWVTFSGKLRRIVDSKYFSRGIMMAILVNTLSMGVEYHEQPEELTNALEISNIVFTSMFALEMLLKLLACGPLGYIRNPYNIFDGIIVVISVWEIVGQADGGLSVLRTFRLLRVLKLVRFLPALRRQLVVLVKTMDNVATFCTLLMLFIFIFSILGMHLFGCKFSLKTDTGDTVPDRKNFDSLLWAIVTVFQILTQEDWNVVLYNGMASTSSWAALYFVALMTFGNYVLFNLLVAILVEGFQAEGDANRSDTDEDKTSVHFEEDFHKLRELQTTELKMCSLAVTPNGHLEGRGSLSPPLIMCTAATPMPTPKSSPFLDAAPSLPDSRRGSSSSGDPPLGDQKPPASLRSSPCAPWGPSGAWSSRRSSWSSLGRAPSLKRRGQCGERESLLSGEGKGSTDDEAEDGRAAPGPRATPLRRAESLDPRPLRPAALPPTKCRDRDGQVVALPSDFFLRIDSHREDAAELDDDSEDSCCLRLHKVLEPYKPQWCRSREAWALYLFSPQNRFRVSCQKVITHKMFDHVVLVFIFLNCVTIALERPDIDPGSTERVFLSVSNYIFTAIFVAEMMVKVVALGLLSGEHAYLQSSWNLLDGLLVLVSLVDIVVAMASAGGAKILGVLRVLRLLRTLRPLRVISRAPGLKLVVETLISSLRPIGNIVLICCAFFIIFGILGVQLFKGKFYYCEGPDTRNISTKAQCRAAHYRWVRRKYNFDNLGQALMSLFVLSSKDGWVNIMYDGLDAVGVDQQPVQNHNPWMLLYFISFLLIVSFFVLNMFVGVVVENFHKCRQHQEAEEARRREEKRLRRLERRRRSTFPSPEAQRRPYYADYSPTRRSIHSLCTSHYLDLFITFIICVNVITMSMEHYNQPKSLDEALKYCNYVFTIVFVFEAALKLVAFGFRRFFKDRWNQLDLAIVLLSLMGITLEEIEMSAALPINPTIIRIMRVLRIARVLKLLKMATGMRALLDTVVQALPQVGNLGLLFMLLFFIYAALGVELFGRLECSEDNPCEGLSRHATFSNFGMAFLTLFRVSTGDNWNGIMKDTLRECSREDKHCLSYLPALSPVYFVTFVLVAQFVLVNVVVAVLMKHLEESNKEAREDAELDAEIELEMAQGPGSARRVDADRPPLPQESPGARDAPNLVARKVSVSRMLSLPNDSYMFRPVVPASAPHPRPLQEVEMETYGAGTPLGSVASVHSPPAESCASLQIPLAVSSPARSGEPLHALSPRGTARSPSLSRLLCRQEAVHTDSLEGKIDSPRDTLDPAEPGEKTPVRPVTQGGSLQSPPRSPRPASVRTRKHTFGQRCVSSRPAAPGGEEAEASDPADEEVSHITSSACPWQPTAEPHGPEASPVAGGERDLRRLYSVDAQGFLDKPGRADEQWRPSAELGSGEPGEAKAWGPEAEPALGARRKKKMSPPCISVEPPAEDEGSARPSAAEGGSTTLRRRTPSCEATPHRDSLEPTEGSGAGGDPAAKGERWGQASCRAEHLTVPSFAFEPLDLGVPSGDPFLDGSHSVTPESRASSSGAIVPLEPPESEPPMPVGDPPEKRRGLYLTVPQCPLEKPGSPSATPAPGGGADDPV

For the compound `CC(C)(C)NC(=O)CN1[C@@H]2CC[C@H]1C[C@H](CNC(=O)C(C)(C)Oc1cccc(Cl)c1)C2` [Example 31], the IC50 (usually the concentration that inhibits the measured activity by half) was determined as 73 nM.

Take `Cc1oc2ccccc2c1C(=O)NC[C@@H]1C[C@H]2CC[C@@H](C1)N2CC(=O)NC(C)(C)C` [Example 85]: the IC50 stood at 15 nM.

Take `CC(C)(C)NC(=O)CN1[C@@H]2CC[C@H]1C[C@H](CNC(=O)C(C)(C)Oc1ccc(C3CC3(Cl)Cl)cc1)C2` (stereo partly drawn) [Example 27]: under setting [1], the IC50 was 94 nM.

For `CCc1oc2ccccc2c1C(=O)NC[C@@H]1C[C@H]2CC[C@@H](C1)N2CC(=O)NC(C)(C)C` [Example 84], the IC50 stood at 10 nM.

As to `CC(C)(C)NC(=O)CN1[C@@H]2CC[C@H]1C[C@H](CC(=O)NC13CC4CC(CC(C4)C1)C3)C2` [Example 4, N-(Adamantan-1-yl)-2-[(exo)-8-(tert-butylcarbamoyl)methyl-8-azabicyclo[3.2.1]octan-3-yl]acetamide], under setting [1], the IC50 amounted to 82 nM.

`COc1cc(F)cc(NC(=O)C[C@@H]2C[C@H]3CC[C@@H](C2)N3CC(=O)NC(C)(C)C)c1` [Example 3]: under setting [1], the IC50 was found to be 69 nM.

In the case of `COCC(C)(C)NC(=O)CN1[C@@H]2CC[C@H]1C[C@H](CNC(=O)c1cc(F)cc(Cl)c1)C2` [Example 104, 3-Chloro-5-fluoro-N-{(exo)-8-[(2-methoxy-1,1-dimethylethyl)carbamoyl]methyl-8-azabicyclo[3.2.1]octan-3-yl}methylbenzamide], the IC50 under setting [1] worked out at 13 nM.

As to `CC(C)(C)NC(=O)CN1[C@@H]2CC[C@H]1C[C@H](CNC(=O)c1ccc3c(c1)CCCO3)C2` [Example 59], under setting [1], the IC50 turned out to be 61 nM.

Consider `CC(C)(C)NC(=O)CN1[C@@H]2CC[C@H]1C[C@H](CNC(=O)c1ccc(Cl)cc1)C2` [Example 77], for which the IC50 was 22 nM.

As to `CC(C)(C)NC(=O)CN1[C@@H]2CC[C@H]1C[C@H](CNC(=O)C1CCCCC1)C2` [Example 74], the IC50 was found to be 101 nM.

Consider `CC(C)(C)CCC(=O)NC[C@@H]1C[C@H]2CC[C@@H](C1)N2CC(=O)NC(C)(C)C` [Example 71], for which the IC50 under setting [1] was found to be 64 nM.

As for `COc1ccc2[nH]c(C[C@@H]3C[C@H]4CC[C@@H](C3)N4CC(=O)NC(C)(C)C)nc2c1OC` [Example 122], the IC50 under setting [1] stood at 138 nM.

For the compound `CC(C)(C)NC(=O)CN1[C@@H]2CC[C@H]1C[C@@H](CC(=O)NC13CC4CC(CC(C4)C1)C3)C2` [Example 129, N-(Adamantan-1-yl)-2-[(endo)-8-(tert-butylcarbamoyl)methyl-8-azabicyclo[3.2.1]octan-3-yl]acetamide], the IC50 under setting [1] is 66 nM.

For the compound `Cc1oc2c(c1C(=O)NC[C@@H]1C[C@H]3CC[C@@H](C1)N3CC(=O)NC1(C(F)(F)F)CC1)CCCC2` [Example 95], the IC50 was determined as 88 nM.

Consider `COc1cc(Cl)cc(C(=O)NC[C@@H]2C[C@H]3CC[C@@H](C2)N3CC(=O)NC(C)(C)C)c1` [Example 53], for which, under setting [1], the IC50 was 49 nM.

As to `Cc1c(C(=O)NC[C@@H]2C[C@H]3CC[C@@H](C2)N3CC(=O)NC(C)(C)C)c2ccccc2n1C` [Example 37], the IC50 came to 67 nM.

`Cn1cc(C(=O)NC[C@@H]2C[C@H]3CC[C@@H](C2)N3CC(=O)NC2(C(F)(F)F)CC2)c2ccccc21` [Example 45]: the IC50 was 103 nM.

As to `CC(C)(C)CNC(=O)C[C@H]1C[C@H]2CC[C@@H](C1)N2CC(=O)NC(C)(C)C` [Example 127, 2-[(endo)-8-(tert-Butylcarbamoyl)methyl-8-azabicyclo[3.2.1]octan-3-yl]-N-(2,2-dimethylpropyl) acetamide], under setting [1], the IC50 is 73 nM.

Turning to `Cn1cc(C(=O)NC[C@@H]2C[C@H]3CC[C@@H](C2)N3CC(=O)NC(C)(C)C)c2cc(Cl)ccc21` [Example 100, N-[(exo)-8-(tert-Butylcarbamoyl)methyl-8-azabicyclo[3.2.1]octan-3-yl]methyl-5-chloro-1-methyl-1H-indole-3-carboxamide], the IC50 under setting [1] stood at 85 nM.

`CC1(NC(=O)CN2[C@@H]3CC[C@H]2C[C@H](CNC(=O)c2cc(F)cc(Cl)c2)C3)COC1` [Example 112]: under setting [1], the IC50 is 93 nM.

For the compound `CC1(NC(=O)CN2[C@@H]3CC[C@H]2C[C@H](CNC(=O)c2cc(F)cc(Cl)c2)C3)CC1` [Example 115], the IC50 under setting [1] turned out to be 63 nM.

`Cc1ccc(C(=O)NC[C@@H]2C[C@H]3CC[C@@H](C2)N3CC(=O)NC(C)(C)C)s1` [Example 81]: under setting [1], the IC50 was found to be 93 nM.

Turning to `CC(C)(C)NC(=O)CN1[C@@H]2CC[C@H]1C[C@@H](CNC(=O)C13CC4CC(CC(C4)C1)C3)C2` [Example 144, N-[(endo)-8-(tert-Butylcarbamoyl)methyl-8-azabicyclo[3.2.1]octan-3-yl]methyladamantane-1-carboxamide], under setting [1], the IC50 worked out at 44 nM.

Consider `COc1ccc2oc(C)c(C(=O)NC[C@@H]3C[C@H]4CC[C@@H](C3)N4CC(=O)NC(C)(C)C)c2c1` [Example 86], for which the IC50 came out at 91 nM.

For the compound `CC(C)(C)NC(=O)CN1[C@@H]2CC[C@H]1C[C@H](CNC(=O)c1cccc3c1CCC3)C2` [Example 60], the IC50 under setting [1] worked out at 78 nM.

Regarding `CC(C)(C)NC(=O)CN1[C@@H]2CC[C@H]1C[C@H](CNC(=O)C13CC4CC(CC1C4)C3)C2` [Example 107], the IC50 is 49 nM.

`Cn1nc(C(C)(C)C)cc1C(=O)NC[C@@H]1C[C@H]2CC[C@@H](C1)N2CC(=O)NC(C)(C)C` [Example 69]: the IC50 under setting [1] was 51 nM.

Regarding `CC(C)(C)NC(=O)CN1[C@@H]2CC[C@H]1C[C@H](CC(=O)Nc1cccc(Cl)c1)C2` [Example 1, 2-[(exo)-8-(tert-Butylcarbamoyl)methyl-8-azabicyclo[3.2.1]octan-3-yl]-N-(3-chlorophenyl)acetamide], the IC50 under setting [1] is 68 nM.

`Cc1cccc2[nH]c(C[C@H]3C[C@H]4CC[C@@H](C3)N4CC(=O)NC(C)(C)C)nc12` [Example 147]: the IC50 under setting [1] was found to be 83 nM.

In the case of `Cn1cc(C(=O)NC[C@@H]2C[C@H]3CC[C@@H](C2)N3CC(=O)NC(C)(C)C)c2ccccc21` [Example 24], the IC50 worked out at 78 nM.

In the case of `Cc1cc(C(=O)NC[C@@H]2C[C@H]3CC[C@@H](C2)N3CC(=O)NC(C)(C)C)n(C)n1` [Example 23], the IC50 under setting [1] is 203 nM.

As to `COc1cccc2[nH]c(C[C@@H]3C[C@H]4CC[C@@H](C3)N4CC(=O)NC(C)(C)C)nc12` [Example 124], the IC50 under setting [1] worked out at 96 nM.

As to `CC(C)(C)NC(=O)CN1[C@@H]2CC[C@H]1C[C@H](CNC(=O)C13CC4CC(CC(C4)C1)C3)C2` [Example 65], the IC50 under setting [1] worked out at 99 nM.

Regarding `CN(C(=O)CN1[C@@H]2CC[C@H]1C[C@H](CNC(=O)c1cc(F)cc(Cl)c1)C2)C(C)(C)C` [Example 118], under setting [1], the IC50 was found to be 78 nM.

For `CC(C)(C)NC(=O)CN1[C@@H]2CC[C@H]1C[C@H](CNC(=O)C1C(C)(C)C1(C)C)C2` [Example 67], under setting [1], the IC50 stood at 42 nM.

In the case of `COc1cccc(OC(C)(C)C(=O)NC[C@@H]2C[C@H]3CC[C@@H](C2)N3CC(=O)NC(C)(C)C)c1` [Example 32], the IC50 under setting [1] was 98 nM.

As to `CC(C)(C)NC(=O)CN1[C@@H]2CC[C@H]1C[C@H](CNC(=O)c1cccc(Cl)c1)C2` [Example 52], under setting [1], the IC50 was found to be 48 nM.

Regarding `CC(C)(C)NC(=O)CN1[C@@H]2CC[C@H]1C[C@H](CNC(=O)c1csc3c1CCCC3)C2` [Example 16], under setting [1], the IC50 worked out at 47 nM.

With `O=C(CN1[C@@H]2CC[C@H]1C[C@H](CNC(=O)C13CC4CC(CC1C4)C3)C2)NC1(CO)CCCC1` [Example 109], the IC50 came to 94 nM.

Consider `CC(C)(C)NC(=O)CN1[C@@H]2CC[C@H]1C[C@H](CNC(=O)CC13CC4CC(CC(C4)C1)C3)C2` [Example 18], for which the half-inhibitory concentration (IC50) was 73 nM.

`Cc1oc2c(c1C(=O)NC[C@@H]1C[C@H]3CC[C@@H](C1)N3CC(=O)NC(C)(C)C)CCCC2` [Example 19]: the half-maximal inhibitory concentration (IC50) stood at 48 nM.

On to `CCn1cc(C(=O)NC[C@@H]2C[C@H]3CC[C@@H](C2)N3CC(=O)NC(C)(C)C)c2ccccc21` [Example 36], for which the IC50 was found to be 49 nM.
